{"source": "the supplement of paper PMC11208160"}
{"experiment": "recombinant barcode read abundance after kanamycin selection (control-corrected) (log10(CPM+1)); higher = more efficient recombination; sequences stand for … in AGTGCAGAGAAAATCGGCCAGTTTTCTCTGCCTGCAGTCCGCATGCCGT…AGATTTATGCAGCGGACTGCCTTTCTCCCAAAGTGATAAACCGGACAGTATCATGGACCGGTTTTCCCGGTAATCCGTATTTGCAAGGTTGGTTTCACT; site = the 11-nt target", "summary_of_the_method": "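Recombination efficiency in this pooled E. coli screen uses counts per million of barcodes at recombinant junctions, averaged and corrected against the control. The reported form is log10(CPM+1). Two replicates were plated on chloramphenicol/ampicillin LB agar as control and two on chloramphenicol/ampicillin/kanamycin with 0.1 mM IPTG.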"}
{"sequence": "AGTTACACTTGGGTTCTAACCTGTTGCCT (site AGTTGCACTAG)", "recombinant barcode read abundance (log10)": 0.0991}
{"sequence": "AGTTACACTTGGGTTCTAACCTGTTGCCT (site AGTTTCACTAG)", "recombinant barcode read abundance (log10)": 0.0317}
{"sequence": "AGTTAGCCTTGGGTTCTAACCTGTTGCCT (site AGTAAGCCTAG)", "recombinant barcode read abundance (log10)": 0.107}
{"sequence": "AGTTAGCCTTGGGTTCTAACCTGTTGCCT (site AGTCAGCCTAG)", "recombinant barcode read abundance (log10)": 0.161}
{"sequence": "AGTTAGCCTTGGGTTCTAACCTGTTGCCT (site AGTGAGCCTAG)", "recombinant barcode read abundance (log10)": 0.114}
{"sequence": "AGTTAGCCTTGGGTTCTAACCTGTTGCCT (site AGTTAGCCTAG)", "recombinant barcode read abundance (log10)": 0.361}
{"sequence": "AGTTAGTCTTGGGTTCTAACCTGTTGCAG (site AGTTAGTCTCT)", "recombinant barcode read abundance (log10)": 1.48}
{"sequence": "AGTTAGTCTTGGGTTCTAACCTGTTGCAG (site GTACGCACTAG)", "recombinant barcode read abundance (log10)": 0.0583}
{"sequence": "AGTTCACCTTGGGTTCTAACCTGTTGCTA (site AGTTCACCTTA)", "recombinant barcode read abundance (log10)": 0.0738}
{"sequence": "AGTTCACCTTGGGTTCTAACCTGTTGCTA (site GAGGGCTCTCC)", "recombinant barcode read abundance (log10)": 0.314}
{"sequence": "AGTTCATCTTGGGTTCTAACCTGTTGCAT (site AGTTCATCTAT)", "recombinant barcode read abundance (log10)": 0.0989}
{"sequence": "AGTTCATCTTGGGTTCTAACCTGTTGCAT (site CTAGATGCTTC)", "recombinant barcode read abundance (log10)": 0}
{"sequence": "AGTTGCCCTTGGGTTCTAACCTGTTGCCT (site AATTGCCCTAG)", "recombinant barcode read abundance (log10)": 0.738}
{"sequence": "AGTTGCCCTTGGGTTCTAACCTGTTGCCT (site ACTTGCCCTAG)", "recombinant barcode read abundance (log10)": 0.068}
{"sequence": "AGTTGCCCTTGGGTTCTAACCTGTTGCCT (site AGTTGCCCTAG)", "recombinant barcode read abundance (log10)": 0.457}
{"sequence": "AGTTGCCCTTGGGTTCTAACCTGTTGCCT (site ATTTGCCCTAG)", "recombinant barcode read abundance (log10)": 0.0653}
{"sequence": "AGTTGGCCTTGGGTTCTAACCTGTTGCGA (site AGTTGGCCTTC)", "recombinant barcode read abundance (log10)": 0.45}
{"sequence": "AGTTGGCCTTGGGTTCTAACCTGTTGCGA (site CCACCTTCTAG)", "recombinant barcode read abundance (log10)": 0.123}
{"sequence": "AGTTGTCCTTGGGTTCTAACCTGTTGCCT (site AGTTGTCCTAA)", "recombinant barcode read abundance (log10)": 0.174}
{"sequence": "AGTTGTCCTTGGGTTCTAACCTGTTGCCT (site AGTTGTCCTAC)", "recombinant barcode read abundance (log10)": 0.0671}
{"sequence": "AGTTGTCCTTGGGTTCTAACCTGTTGCCT (site AGTTGTCCTAG)", "recombinant barcode read abundance (log10)": 0.132}
{"sequence": "AGTTGTCCTTGGGTTCTAACCTGTTGCCT (site AGTTGTCCTAT)", "recombinant barcode read abundance (log10)": 0.296}
{"sequence": "ATAACTACTTGGGTTCTAACCTGTTGCTT (site ATAACTACTAA)", "recombinant barcode read abundance (log10)": 0.216}
{"sequence": "ATAACTACTTGGGTTCTAACCTGTTGCTT (site TACCTACCTTC)", "recombinant barcode read abundance (log10)": 0.0357}
{"sequence": "ATAAGCCCTTGGGTTCTAACCTGTTGCCT (site AAAAGCCCTAG)", "recombinant barcode read abundance (log10)": 0.176}
{"sequence": "ATAAGCCCTTGGGTTCTAACCTGTTGCCT (site ACAAGCCCTAG)", "recombinant barcode read abundance (log10)": 0.212}
{"sequence": "ATAAGCCCTTGGGTTCTAACCTGTTGCCT (site AGAAGCCCTAG)", "recombinant barcode read abundance (log10)": 0.166}
{"sequence": "ATAAGCCCTTGGGTTCTAACCTGTTGCCT (site ATAAGCCCTAG)", "recombinant barcode read abundance (log10)": 1.36}
{"sequence": "ATAAGCTCTTGGGTTCTAACCTGTTGCCT (site ATAAGCTCTAG)", "recombinant barcode read abundance (log10)": 2.3}
{"sequence": "ATAAGCTCTTGGGTTCTAACCTGTTGCCT (site CTAAGCTCTAG)", "recombinant barcode read abundance (log10)": 0.289}
{"sequence": "ATAAGCTCTTGGGTTCTAACCTGTTGCCT (site GTAAGCTCTAG)", "recombinant barcode read abundance (log10)": 0.119}
{"sequence": "ATAAGCTCTTGGGTTCTAACCTGTTGCCT (site TTAAGCTCTAG)", "recombinant barcode read abundance (log10)": 0.766}
{"sequence": "ATAAGGACTTGGGTTCTAACCTGTTGCTA (site ATAAGGACTTA)", "recombinant barcode read abundance (log10)": 2.01}
{"sequence": "ATAAGGACTTGGGTTCTAACCTGTTGCTA (site ATACGGACTTA)", "recombinant barcode read abundance (log10)": 0.111}
{"sequence": "ATAAGGACTTGGGTTCTAACCTGTTGCTA (site ATAGGGACTTA)", "recombinant barcode read abundance (log10)": 1.26}
{"sequence": "ATAAGGACTTGGGTTCTAACCTGTTGCTA (site ATATGGACTTA)", "recombinant barcode read abundance (log10)": 0.52}
{"sequence": "ATAAGGGCTTGGGTTCTAACCTGTTGCCT (site ATAAATGCTAG)", "recombinant barcode read abundance (log10)": 0.183}
{"sequence": "ATAAGGGCTTGGGTTCTAACCTGTTGCCT (site ATAAGGGCTAG)", "recombinant barcode read abundance (log10)": 0.652}
{"sequence": "ATAAGTCCTTGGGTTCTAACCTGTTGCCA (site ATAAGTCCTTG)", "recombinant barcode read abundance (log10)": 0.582}
{"sequence": "ATAAGTCCTTGGGTTCTAACCTGTTGCCA (site GTAAGTACTTG)", "recombinant barcode read abundance (log10)": 0.0629}
{"sequence": "ATACGTACTTGGGTTCTAACCTGTTGCCT (site ATACGTACTAG)", "recombinant barcode read abundance (log10)": 1.74}
{"sequence": "ATACGTACTTGGGTTCTAACCTGTTGCCT (site CTACGTACTAG)", "recombinant barcode read abundance (log10)": 0.0799}
{"sequence": "ATACGTACTTGGGTTCTAACCTGTTGCCT (site GTACGTACTAG)", "recombinant barcode read abundance (log10)": 0.067}
{"sequence": "ATACGTACTTGGGTTCTAACCTGTTGCCT (site TTACGTACTAG)", "recombinant barcode read abundance (log10)": 0.0363}
{"sequence": "ATACTACCTTGGGTTCTAACCTGTTGCGG (site ATACTACCTCC)", "recombinant barcode read abundance (log10)": 1.4}
{"sequence": "ATACTACCTTGGGTTCTAACCTGTTGCGG (site ATCCCACCTCC)", "recombinant barcode read abundance (log10)": 0.119}
{"sequence": "ATATACTCTTGGGTTCTAACCTGTTGCCG (site ATATACTCTCG)", "recombinant barcode read abundance (log10)": 2.38}
{"sequence": "ATATACTCTTGGGTTCTAACCTGTTGCCG (site ATCTACTCTAG)", "recombinant barcode read abundance (log10)": 0.0335}
{"sequence": "ATATGAGCTTGGGTTCTAACCTGTTGCCG (site ATATGAGCTCG)", "recombinant barcode read abundance (log10)": 0.307}
{"sequence": "ATATGAGCTTGGGTTCTAACCTGTTGCCG (site ATATGCGCTCG)", "recombinant barcode read abundance (log10)": 0.175}
{"sequence": "ATATGAGCTTGGGTTCTAACCTGTTGCCG (site ATATGGGCTCG)", "recombinant barcode read abundance (log10)": 0.0468}
{"sequence": "ATATGAGCTTGGGTTCTAACCTGTTGCCG (site ATATGTGCTCG)", "recombinant barcode read abundance (log10)": 0.167}
{"sequence": "ATATGAGCTTGGGTTCTAACCTGTTGCTT (site ACATGACCTAA)", "recombinant barcode read abundance (log10)": 0.177}
{"sequence": "ATATGAGCTTGGGTTCTAACCTGTTGCTT (site ATATGAGCTAA)", "recombinant barcode read abundance (log10)": 0.283}
{"sequence": "ATCAACCCTTGGGTTCTAACCTGTTGCCA (site ATCAACCCTTG)", "recombinant barcode read abundance (log10)": 1.04}
{"sequence": "ATCAACCCTTGGGTTCTAACCTGTTGCCA (site TCGTCTACTGA)", "recombinant barcode read abundance (log10)": 0.375}
{"sequence": "ATCACAGCTTGGGTTCTAACCTGTTGCCT (site ATCAAAGCTAG)", "recombinant barcode read abundance (log10)": 0.136}
{"sequence": "ATCACAGCTTGGGTTCTAACCTGTTGCCT (site ATCACAGCTAG)", "recombinant barcode read abundance (log10)": 0.736}
{"sequence": "ATCACGCCTTGGGTTCTAACCTGTTGCCT (site ACCACGCCTAG)", "recombinant barcode read abundance (log10)": 0.128}
{"sequence": "ATCACGCCTTGGGTTCTAACCTGTTGCCT (site ATCACGCCTAG)", "recombinant barcode read abundance (log10)": 0.544}
{"sequence": "ATCAGGTCTTGGGTTCTAACCTGTTGCCT (site AACAGGTCTAG)", "recombinant barcode read abundance (log10)": 0.299}
{"sequence": "ATCAGGTCTTGGGTTCTAACCTGTTGCCT (site ACCAGGTCTAG)", "recombinant barcode read abundance (log10)": 0.18}
{"sequence": "ATCAGGTCTTGGGTTCTAACCTGTTGCCT (site AGCAGGTCTAG)", "recombinant barcode read abundance (log10)": 0.107}
{"sequence": "ATCAGGTCTTGGGTTCTAACCTGTTGCCT (site ATCAGGTCTAG)", "recombinant barcode read abundance (log10)": 0.431}
{"sequence": "ATCAGTACTTGGGTTCTAACCTGTTGCCT (site ATCAGTACTAG)", "recombinant barcode read abundance (log10)": 0.307}
{"sequence": "ATCAGTACTTGGGTTCTAACCTGTTGCCT (site CTGAGTACTAG)", "recombinant barcode read abundance (log10)": 0.242}
